From patent publication US20240279220A1, “INDOLE COMPOUNDS AND METHODS OF USE” (Genzyme Corporation, priority 2021, published 2024) come the findings set out here.

For this experiment, the system named is NBD1/3D. Put plainly: Aggregation analysis using differential static light scattering (DSLS), NBD1 thermal stability. Particulars: ΔTagg versus DMSO control; compound at 100 μM. In kind it is binding, Human. The method in brief: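 Purified NBD1 at 0.2 mg/ml in S200 buffer (pH 7.6, 2 mM ATP, 5 mM MgCl2, 1% glycerol) was heated with compound at 1 °C/min to 70 °C. Tagg taken from the light-scattering curve inflection point; ΔTagg = compound Tagg minus mean DMSO control Tagg.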

Take `Cc1c(Oc2ccc(F)c(-c3ncc(C(C)(C)c4cccc(CCC(=O)O)c4F)[nH]3)c2)ccc2[nH]ccc12` [Example 161, 3-(2-fluoro-3-(2-(2-(2-fluoro-5-((4-methyl-1H-indol-5-yl)oxy)phenyl)-1H-imidazol-5-yl)propan-2-yl)phenyl)propanoic acid]: the “DSLS NBD1/3D Human Stability delta-T (° C.) @ 100 (μM)” value (“DSLS NBD1/3D Human Stability delta-T” below) was “B (B: 5-10° C.)”.

Consider `CC(C)(c1cnc(-c2cc(Oc3ccc4[nH]ccc4c3F)ccc2F)[nH]1)c1cccc(CCC(=O)O)c1F` [Example 162, 3-(2-fluoro-3-(2-(2-(2-fluoro-5-((4-fluoro-1H-indol-5-yl)oxy)phenyl)-1H-imidazol-5-yl)propan-2-yl)phenyl)propanoic acid], for which the “DSLS NBD1/3D Human Stability delta-T” value is listed as “B (B: 5-10° C.)”. `CC(C)(c1cnc(-c2cc(Oc3c(F)cc4[nH]ccc4c3CC(F)(F)F)ccc2F)[nH]1)c1cccc(CCC(=O)O)c1F` [Example 163, 3-(2-fluoro-3-(2-(2-(2-fluoro-5-((6-fluoro-4-(2,2,2-trifluoroethyl)-1H-indol-5-yl)oxy)phenyl)-1H-imidazol-5-yl)propan-2-yl)phenyl)propanoic acid]: the “DSLS NBD1/3D Human Stability delta-T” value was “B (B: 5-10° C.)”.

Consider `CC(C)(c1c[nH]c(-c2cc(Oc3c(F)cc4[nH]ccc4c3Cl)ccc2F)n1)c1cccc(CCC(=O)O)c1F` [Example 164, 3-(3-(2-(2-(5-((4-chloro-6-fluoro-1H-indol-5-yl)oxy)-2-fluorophenyl)-1H-imidazol-4-yl)propan-2-yl)-2-fluorophenyl)propanoic acid], for which the “DSLS NBD1/3D Human Stability delta-T” value was “B (B: 5-10° C.)”. Consider `O=C(O)CCc1cccc(C2(c3cnc(-c4cc(Oc5nc6cc[nH]c6cc5F)ccc4F)[nH]3)CC(F)(F)C2)c1` [Example 165, 3-(3-(3,3-difluoro-1-(2-(2-fluoro-5-((6-fluoro-1H-pyrrolo[3,2-b]pyridin-5-yl)oxy)phenyl)-1H-imidazol-5-yl)cyclobutyl)phenyl)propanoic acid], for which the “DSLS NBD1/3D Human Stability delta-T” value is recorded as “B (B: 5-10° C.)”. The entry for `O=C(O)CCc1cccc(C2(c3cnc(-c4cc(Oc5ccc6scnc6c5)ccc4F)[nH]3)CCOCC2)c1` [Example 166, 3-(3-(4-(2-(5-(Benzo[d]thiazol-5-yloxy)-2-fluorophenyl)-1H-imidazol-5-yl)tetrahydro-2H-pyran-4-yl)phenyl)propanoic acid] is “C (C: ≤5° C.)”.

For the compound `Cc1c(Oc2ccc(F)c(-c3ncc(C4(c5cccc(CCC(=O)O)c5)CCN(CC(F)(F)F)CC4)[nH]3)c2)c(F)cc2[nH]ccc12` [Example 168, 3-(3-(4-(2-(2-fluoro-5-((6-fluoro-4-methyl-1H-indol-5-yl)oxy)phenyl)-1H-imidazol-5-yl)-1-(2,2,2-trifluoroethyl)piperidin-4-yl)phenyl)propanoic acid], the “DSLS NBD1/3D Human Stability delta-T” value was “B (B: 5-10° C.)”.

As to `Cc1c(Oc2cccc(-c3ncc(C(O)c4cccc(CC(F)C(=O)O)c4)[nH]3)c2)ccc2[nH]ccc12` (stereo not shown) [Example 172, 2-Fluoro-3-(3-(hydroxy(2-(3-((4-methyl-1H-indol-5-yl)oxy)phenyl)-1H-imidazol-5-yl)methyl)phenyl)propanoic acid], the “DSLS NBD1/3D Human Stability delta-T” value is “A (A: T ≥ 10° C.)”. For `COC(=O)C(F)Cc1cccc(C(O)c2cnc(-c3cccc(Oc4ccc5[nH]ccc5c4C)c3)[nH]2)c1` (stereo not shown) [Example 173, Methyl 2-fluoro-3-(3-(hydroxy(2-(3-((4-methyl-1H-indol-5-yl)oxy)phenyl)-1H-imidazol-5-yl)methyl)phenyl)propanoate], the “DSLS NBD1/3D Human Stability delta-T” value is “B (B: 5-10° C.)”. For `C=Cc1c(Oc2cccc(-c3ncc(C(O)c4cccc(CCC(=O)O)c4)[nH]3)c2)ccc2[nH]ccc12` (stereo not shown) [Example 174, 3-(3-(hydroxy(2-(3-((4-vinyl-1H-indol-5-yl)oxy)phenyl)-1H-imidazol-5-yl)methyl)phenyl)propanoic acid], the “DSLS NBD1/3D Human Stability delta-T” value is recorded as “B (B: 5-10° C.)”. For `O=C(O)CCc1cccc(C(O)c2cnc(-c3cccc(Oc4ccc5[nH]ccc5c4C4CC4)c3)[nH]2)c1` (stereo not shown) [Example 175, 3-(3-((2-(3-((4-cyclopropyl-1H-indol-5-yl)oxy)phenyl)-1H-imidazol-5-yl)(hydroxy)methyl)phenyl)propanoic acid], the “DSLS NBD1/3D Human Stability delta-T” value is listed as “B (B: 5-10° C.)”. The value for `Cc1c(Oc2cccc(-c3ncc(C(O)c4cccc(C5CC5C(=O)O)c4)[nH]3)c2)ccc2[nH]ccc12` (stereo not shown) [Example 176, 2-(3-(hydroxy(2-(3-((4-methyl-1H-indol-5-yl)oxy)phenyl)-1H-imidazol-5-yl)methyl)phenyl)cyclopropane-1-carboxylic acid] was “B (B: 5-10° C.)”; that for `O=C(O)CCc1cccc(C(O)c2c[nH]c(-c3cc(Oc4c(F)cc5[nH]ccc5c4F)ccc3F)n2)c1` (stereo not shown) [Example 177, 3-(3-((2-(5-((4,6-difluoro-1H-indol-5-yl)oxy)-2-fluorophenyl)-1H-imidazol-4-yl)(hydroxy)methyl)phenyl)propanoic acid] was “A (A: T ≥ 10° C.)”; that for `O=C(O)CCc1cc(F)cc(C(O)c2c[nH]c(-c3cc(Oc4c(F)cc5[nH]ccc5c4F)ccc3F)n2)c1` (stereo not shown) [Example 178, 3-(3-((2-(5-((4,6-difluoro-1H-indol-5-yl)oxy)-2-fluorophenyl)-1H-imidazol-4-yl)(hydroxy)methyl)-5-fluorophenyl)propanoic acid] was “B (B: 5-10° C.)”. For the compound `CC(Cc1cccc([C@H](O)c2cnc(-c3cccc(Oc4c(F)cc5[nH]ccc5c4F)c3)[nH]2)c1)C(=O)O` (stereo partly drawn) [Example 181, 3-(3-((S)-(2-(3-((4,6-Difluoro-1H-indol-5-yl)oxy)phenyl)-1H-imidazol-5-yl)(hydroxy)methyl)phenyl)-2-methylpropanoic acid], the “DSLS NBD1/3D Human Stability delta-T” value is listed as “B (B: 5-10° C.)”. The value for `CC(CC(=O)O)c1cccc([C@H](O)c2cnc(-c3cccc(Oc4c(F)cc5[nH]ccc5c4F)c3)[nH]2)c1` (stereo partly drawn) [Example 182, 3-(3-((S)-(2-(3-((4,6-Difluoro-1H-indol-5-yl)oxy)phenyl)-1H-imidazol-5-yl)(hydroxy)methyl)phenyl)butanoic acid] was “B (B: 5-10° C.)”; that for `CCc1c(Oc2cccc(-c3ncc(C(O)c4cccc(CCC(=O)O)c4)[nH]3)c2)ccc2[nH]ccc12` (stereo not shown) [Example 183, 3-(3-((2-(3-((4-Ethyl-1H-indol-5-yl)oxy)phenyl)-1H-imidazol-5-yl)(hydroxy)methyl)phenyl)propanoic acid] was “B (B: 5-10° C.)”. Regarding `Cc1c(Oc2cccc(-c3ncc(C(C)(O)c4cccc(CCC(=O)O)c4)[nH]3)c2)c(F)cc2[nH]ccc12` (stereo not shown) [Example 185, 3-(3-(1-(2-(3-((6-fluoro-4-methyl-1H-indol-5-yl)oxy)phenyl)-1H-imidazol-5-yl)-1-hydroxyethyl)phenyl) propanoic acid], the “DSLS NBD1/3D Human Stability delta-T” value is given as “A (A: T ≥ 10° C.)”.

Regarding `Cc1c(Oc2ccc(F)c(-c3ncc(C(C)(O)c4cccc(CCC(=O)O)c4)[nH]3)c2)c(F)cc2[nH]ccc12` (stereo not shown) [Example 186, 3-(3-(1-(2-(2-fluoro-5-((6-fluoro-4-methyl-1H-indol-5-yl)oxy)phenyl)-1H-imidazol-5-yl)-1-hydroxyethyl)phenyl) propanoic acid], the “DSLS NBD1/3D Human Stability delta-T” value was “B (B: 5-10° C.)”.

As to `CC(O)(c1cccc(CCC(=O)O)c1)c1cnc(-c2cc(Oc3c(F)cc4[nH]ccc4c3F)ccc2F)[nH]1` (stereo not shown) [Example 187, 3-(3-(1-(2-(5-((4,6-difluoro-1H-indol-5-yl)oxy)-2-fluorophenyl)-1H-imidazol-5-yl)-1-hydroxyethyl)phenyl) propanoic acid], the “DSLS NBD1/3D Human Stability delta-T” value is “A (A: T ≥ 10° C.)”. As to `CC(O)(c1cccc(CCC(=O)O)c1)c1c[nH]c(-c2cc(Oc3c(F)cc4[nH]ccc4c3CC(F)F)ccc2F)n1` (stereo not shown) [Example 188, 3-(3-(1-(2-(5-((4-(2,2-difluoroethyl)-6-fluoro-1H-indol-5-yl)oxy)-2-fluorophenyl)-1H-imidazol-4-yl)-1-hydroxyethyl)phenyl) propanoic acid], the “DSLS NBD1/3D Human Stability delta-T” value was “B (B: 5-10° C.)”. As for `Cc1c(Oc2ccc(F)c(-c3nc(C(C)(O)c4cc(Cl)cc(CCC(=O)O)c4)c[nH]3)c2)c(F)cc2[nH]ccc12` (stereo not shown) [Example 189, 3-(3-chloro-5-(1-(2-(2-fluoro-5-((6-fluoro-4-methyl-1H-indol-5-yl)oxy)phenyl)-1H-imidazol-4-yl)-1-hydroxyethyl)phenyl) propanoic acid], the “DSLS NBD1/3D Human Stability delta-T” value is reported as “B (B: 5-10° C.)”. As to `CC(O)(c1cccc(CCC(=O)O)c1)c1cnc(-c2cc(Oc3c(F)cc4[nH]ccc4c3CC(F)(F)F)ccc2F)[nH]1` (stereo not shown) [Example 190, 3-(3-(1-(2-(2-fluoro-5-((6-fluoro-4-(2,2,2-trifluoroethyl)-1H-indol-5-yl)oxy)phenyl)-1H-imidazol-5-yl)-1-hydroxyethyl)phenyl) propanoic acid], the “DSLS NBD1/3D Human Stability delta-T” value was “B (B: 5-10° C.)”. As for `CC(O)(c1cccc(CCC(=O)O)c1)c1cnc(-c2cc(Oc3c(F)cc4[nH]ccc4c3C(F)F)ccc2F)[nH]1` (stereo not shown) [Example 191, 3-(3-(1-(2-(5-((4-(difluoromethyl)-6-fluoro-1H-indol-5-yl)oxy)-2-fluorophenyl)-1H-imidazol-5-yl)-1-hydroxyethyl)phenyl) propanoic acid], the “DSLS NBD1/3D Human Stability delta-T” value is “B (B: 5-10° C.)”.

As to `Cc1c(Oc2ccc(F)c(-c3nc(C(C)(O)c4cc(F)cc(CCC(=O)O)c4)c[nH]3)c2)c(F)cc2[nH]ccc12` (stereo not shown) [Example 192, 3-(3-fluoro-5-(1-(2-(2-fluoro-5-((6-fluoro-4-methyl-1H-indol-5-yl)oxy)phenyl)-1H-imidazol-4-yl)-1-hydroxyethyl)phenyl) propanoic acid], the “DSLS NBD1/3D Human Stability delta-T” value is “B (B: 5-10° C.)”.
